From ChEMBL document CHEMBL1132055, “1-Aminoisoquinoline as benzamidine isoster in the design and synthesis of orally active thrombin inhibitors” (Bioorg Med Chem Lett, 1999)

Legend:
[1] = biological target: Serine protease 1 (Homo sapiens, UniProt P07477); test: Compound was tested for inhibitory activity against trypsin
[2] = tested on: Caco-2; conditions: Homo sapiens
Description: Compound was tested for its effect on increasing the permeability of Caco-2 cells

[3] = biological target: Prothrombin (Homo sapiens, UniProt P00734); test: Compound was tested for inhibitory activity against thrombin

Sequence of Serine protease 1 (P07477 whole entry): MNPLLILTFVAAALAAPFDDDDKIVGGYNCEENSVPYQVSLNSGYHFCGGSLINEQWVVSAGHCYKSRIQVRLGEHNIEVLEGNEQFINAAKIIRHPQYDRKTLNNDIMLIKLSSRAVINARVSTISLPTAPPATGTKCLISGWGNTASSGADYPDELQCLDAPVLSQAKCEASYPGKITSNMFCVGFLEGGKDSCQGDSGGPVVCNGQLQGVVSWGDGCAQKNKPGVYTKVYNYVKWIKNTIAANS

For `COc1cc(C)c(S(=O)(=O)N[C@@H](CC(=O)OC(C)(C)C)C(=O)NC(Cc2ccc3c(N)nccc3c2)C(=O)N2CCCCC2)c(C)c1C` (stereo partly specified), the IC50 [1] was 378 µM.

`Nc1nccc2cc(CC(NC(=O)CNS(=O)(=O)c3ccc4ccccc4c3)C(=O)N3CCCCC3)ccc12` (stereo unspecified) showed a Papp [2] of 1.9 ×10⁻⁶ cm/s, an IC50 [3] of 55 µM and an IC50 [1] of 255 µM.

Work on `Cc1c(C)c(S(=O)(=O)NCC(=O)NC(Cc2ccc3c(N)nccc3c2)C(=O)N2CCCCC2)c(C)c2c1OC(C)(C)CC2` (stereo unspecified) yielded a Papp [2] of 3.7 ×10⁻⁶ cm/s.

With `Cc1ccc(S(=O)(=O)NCC(=O)NC(Cc2ccc3c(N)nccc3c2)C(=O)N2CCCCC2)cc1` (stereo unspecified) the IC50 [3] was 357 µM.
